The record followed here is US20260258029A1, “CHROMANE AMIDINE MONOBACTAM COMPOUNDS FOR THE TREATMENT OF BACTERIAL INFECTIONS” (priority 2022, published 2026).

What all share (type): cell-based
Assay [1] concerns Escherichia coli expressing NDM-1 (CLB30016). The experiment in a line: Growth inhibitory concentration (OD600), E. coli CLB30016, with relebactam. Conditions: lowest concentration inhibiting 95% of bacterial growth, BLi relebactam 4 μg/mL, 35±2° C., 22 hours. On the procedure:
(§1) The concentrations of compounds required to inhibit the growth of various strains of bacteria were determined in an assay that assessed bacterial growth by measuring optical density at 600 nm (OD600). The bacterial strains tested included the clinical strains Escherichia coli expressing NDM-1 (CLB30016), Klebsiella pneumoniae expressing KPC-1 (CL6569), Acinetobacter baumannii expressing TEM-1, AmpC, and Oxa-24/40 (CL6188) and Pseudomonas aeruginosa expressing AmpC (CL5701). All compounds were tested in the presence of a R lactamase inhibitor (BLi, Relebactam) in 384-well microplates.
(§2) The clinical strains were stored as frozen single use stocks, thawed and diluted into 1.1× cation-adjusted Mueller-Hinton II broth to achieve approximately 2×10^5 CFU/mL. Test compounds were dissolved in DMSO and diluted 1:50 in the assay, resulting in a final concentration range of 100 μM to 0.098 μM. On the day of the assay, 1 μL of test compound was added to the plate followed by 4 μL of 50 μg/mL BLi in MOPS buffer and 45 μL of diluted bacteria. Plates were centrifuged at 1000 rpm for 30 seconds, shaken at approximately 800 rpm for 1 minute, and incubated at 35±2° C. for 22 hours. The concentration of BLi used in the assay was 4 μg/mL. At the end of the incubation, absorbance at 600 nm was determined using a spectrophotometer. Inhibition was quantitated by identifying the lowest concentration of test compound that was required to inhibit 95% of the growth of the bacteria. The results for Examples 1-39 are reported in Table I, expressed as the concentration of compound that inhibited 95% of bacterial growth (Minimum Inhibitory Threshold Concentration; MITC95).

In assay [2] the test system is Pseudomonas aeruginosa expressing AmpC (CL5701). Put plainly: Growth inhibitory concentration (OD600), P. aeruginosa CL5701, with relebactam. Particulars: lowest concentration inhibiting 95% of bacterial growth, BLi relebactam 4 μg/mL, 35±2° C., 22 hours. On the procedure:
as §1, §2

The subject of assay [3] is Acinetobacter baumannii expressing TEM-1, AmpC, and Oxa-24/40 (CL6188). Particulars: lowest concentration inhibiting 95% of bacterial growth; BLi relebactam 4 μg/mL; 35±2° C., 22 hours; OD600. The method, then: as §1, §2

For `CC1(C)[C@H](NC(=O)/C(=N\O[C@](C)(C(=O)O)[C@H]2CCc3cc(C(=N)NC[C@H]4C[C@](N)(CO)C4)ccc3O2)c2csc(N)n2)C(=O)N1OS(=O)(=O)O` [Compound 70, (S)-2-((R)-6-(N-(((1s,3S)-3-amino-3-(hydroxymethyl)cyclobutyl)methyl)-carbamimidoyl)-chroman-2-yl)-2-((((Z)-1-(2-aminothiazol-4-yl)-2-(((S)-2,2-dimethyl-4-oxo-1-(sulfooxy)-azetidin-3-yl)amino)-2-oxoethylidene)amino)oxy)propanoic acid], in assay [1], the “EC—CLB30016 MITC95” value was found to be 6.25 µM. In addition, the “PA—CL5701 MITC95” value in assay [2] was determined as 1.563 µM. In addition, the “AB—CL6188 MITC95” value in assay [3] turned out to be 6.25 µM.

Take `CC1(C)[C@H](NC(=O)/C(=N\O[C@](C)(C(=O)O)[C@H]2CCc3cc(C(=N)NC[C@H]4C[C@@](N)(CO)C4)ccc3O2)c2csc(N)n2)C(=O)N1OS(=O)(=O)O` [Compound 71, (S)-2-((R)-6-(N-(((1r,3R)-3-amino-3-(hydroxymethyl)cyclobutyl)methyl)-carbamimidoyl)-chroman-2-yl)-2-((((Z)-1-(2-aminothiazol-4-yl)-2-(((S)-2,2-dimethyl-4-oxo-1-(sulfooxy)-azetidin-3-yl)amino)-2-oxoethylidene)amino)oxy)propanoic acid]: the “EC—CLB30016 MITC95” value in assay [1] was found to be 6.25 µM. Besides, the “PA—CL5701 MITC95” value in assay [2] is 1.563 µM. Also, the “AB—CL6188 MITC95” value in assay [3] came to 3.125 µM.

With “tert-butyl (S)-2-((((Z)-1-(2-((tert-butoxycarbonyl)amino)thiazol-4-yl)-2-(((S)-2,2-dimethyl-4-oxo-1-(sulfooxy)azetidin-3-yl)amino)-2-oxoethylidene)amino)oxy)-2-((R)-6-(N—(((S)-morpholin-2-yl)methyl)carbamimidoyl)chroman-2-yl)propanoate [Compound 32]”, the “EC—CLB30016 MITC95” value in assay [1] turned out to be 6.25 µM. The “PA—CL5701 MITC95” value in assay [2] was 3.125 µM. Also, the “AB—CL6188 MITC95” value in assay [3] worked out at 12.5 µM.
